Where “and” joins values, the source holds several entries; their conditions need not be identical. Equal entries are not always repeated.
Legend:
mice = experiment: Tolerability of light exposure starting 15 min post-injection (lethality); format: in vivo, Balb/c mice
Protocol: (§1) In order to determine the level of BPD in plasma during the light treatment, the following experiment was carried out. Fourteen Balb/c mice (22±1 g of weight) were injected with liposomal BPD at 20 μg/mouse (0.9 mg/kg) in 200 μl PBS per mouse. Blood samples were obtained by heart puncture at various time intervals between 15 min and 2 hours post-injection. Exposure to light started at 15 min post-injection for some mice. The BPD concentration in plasma was determined as described above.
At 2 hours post-injection, i.e., at the time point corresponding to the end of 1 hour exposure to light (108 J/cm^2) in the first example, the plasma level of BPD was 2.44 μg/ml. At the beginning of exposure to light, in the same example, the plasma level of BPD was about 4 μg/ml. To further evaluate skin photosensitivity at these low levels, mice were exposed to light at an earlier time post-injection, i.e., at 15 min, when the level of BPD in plasma was 6.32 μg/ml.

P815 cells = experiment: Surviving clonogenic P815 cells in mouse blood; format: in vivo, DBA/2 mice; conditions: average of 3 mice/group
Protocol: Male mature DBA/2 and Balb/c mice were injected intravenously with P815 and L1210 cells, respectively, preincubated for 1 hour with BPD (liposomal) at 100 ng/ml. Immediately before animal injection, an additional 2 μg of BPD was added to the syringes containing cells. […] One group of mice (shaved and depilated) was exposed immediately to red light (600-900 nm) in the light box for 1.5 hours (162 J/cm^2); the other group was kept in the dark as the control.
Immediately after exposure to light, blood samples were obtained by a heart puncture under halothane anesthesia. The concentration of BPD in plasma of light-exposed and control mice was determined by fluorescence. The number of clonogenic tumor cells in mouse blood was determined by culturing blood samples in culture medium supplemented with 10% bovine serum, using a limiting dilution assay protocol.

[1] = Body and organ weights and gross autopsy two weeks post-treatment; format: in vivo, Balb/c mice
Protocol: (§2) Six Balb/c mice (22±1 g weight) were prepared as described above. Five mice were injected twice (24 hour interval) with BPD from DMSO stock (not liposomal BPD) and exposed to light 1 hour after the injection. One mouse was not injected but was exposed to light (light-only control). During the first treatment the mice were injected with 15 μg BPD/mouse in 200 μl of PBS. During the second treatment the mice were injected with 20 μg BPD/mouse (0.9 mg/kg). A single mouse was used as a control for both treatments.
(§3) Immediately post-injection (on both occasions) the animals were kept for 1 hour in the dark and then were placed in individual plastic containers (9×4×5 cm), which were placed in the light box and exposed to light. The individual mice were removed from the light box at different intervals: 15, 30, 45, 60 and 75 min, respectively. The light doses delivered at the surface of the skin were 27, 54, 81, 108 and 135 J/cm^2, respectively. On the second occasion the same light doses were used; however, mice receiving higher light doses on day 1 received lower doses on day 2. The control mouse was exposed to light for 60 min on both occasions. During light exposure, the mice were constantly observed for signs of discomfort or itching. After the second light exposure, the mice were observed daily for a period of 2 weeks for appearance of the skin and general pattern of behavior.
(§4) Two weeks post-treatment blood samples were obtained from each mouse by a heart puncture, under halothane anesthesia. Then the mice were sacrificed and autopsied. Their spleen, liver and kidneys were weighed.

[2] = Pharmacokinetic studies: BPD concentration in plasma; format: in vivo, Balb/c mice; conditions: for Plasma Conc.: liposomal BPD
Protocol: Determination of BPD Concentration in Plasma: Plasma samples were obtained by centrifugation of blood collected from mice and stored frozen at -20° C. until assessment. The concentration of BPD in the samples was determined by fluorometry using a Jasco Model FP-770 (Japan Spectroscopic Co.) spectrofluorometer and a microcuvette (Far UV Quartz Cell, Starna Cells Inc.). Excitation and emission wavelengths were 439 and 699 nm, respectively. Plasma samples were diluted 20-fold with PBS containing 1% Triton® X-100 immediately before fluorescence was determined. BPD standards were prepared in 5% mouse plasma in PBS with 1% Triton® X-100. Under these conditions the relationship between the concentration of BPD and units of fluorescence was linear (correlation coefficient >0.99) for concentrations between 0.1 ng/ml and 1 μg/ml. The limit of detection was below 0.1 ng/ml sample which corresponded to 2 ng/ml plasma. […] The 699 nm fluorescence peak of BPD was virtually free from any interference.
as §1

mouse blood = experiment: Blood parameters two weeks after treatment (Coulter Counter); format: in vivo, Balb/c mice; conditions: for HB (hemoglobin) / Hct (hematocrit) / MCV / PLT (platelet count) / RBC / WBC: 2 weeks
Protocol: Blood Tests: Blood was drawn into syringes containing 50 μl of heparin (1000 units/ml saline). Blood samples (0.45 ml) from at least 1 mouse per time point were sent to the Diagnostic Laboratory at the University Hospital, University of British Columbia site, for analysis by a Coulter Counter. Blood morphology was determined on blood films prepared from selected samples by a laboratory technologist.
as §2, §3, §4

virus-infected T cells = conditions: after exposure of BPD-treated, virus-infected T cells to light; cited from earlier work
[3] = Drug + Light, individual mice, 2 weeks post-treatment
[4] = mouse 1, light 27 then 135 J/cm^2
[5] = mouse 2, light 54 then 108 J/cm^2
[6] = mouse 3, light 81 then 81 J/cm^2
[7] = mouse 4, light 108 then 54 J/cm^2
[8] = mouse 5, light 135 then 27 J/cm^2

Substance: benzoprophyrin derivative monoacid ring A [BPD]
- starting plasma level of BPD lethal to mice (mice; light exposure of about 50 J/cm^2 whole body irradiation, 0.9 mg/kg, 15 min): about 6.5 μg/ml
- discomfort on light exposure (mice; light from 15 min post-injection): almost immediately uncomfortable
- death of mice on light exposure (mice; liposomal BPD 0.9 mg/kg, light from 15 min post-injection, 54 J/cm^2): died after 30 min of exposure
- Surviving cells in blood (P815 cells; Dark control): 50 P815 cells/2 ml blood/mouse
- Surviving cells in blood (P815 cells; Light exposed (162 J/cm^2)): 8 P815 cells/2 ml blood/mouse
- gross morphology and weights of internal organs ([1]; 2 weeks after double treatment, liver, spleen, kidneys): normal
- toxicity (gross examination of liver, spleen, kidneys; blood parameters) ([1]; 2 weeks post-treatment): no toxicity was detected
- Kidneys weight [1, 3]: 0.172 g and 0.343 g and 0.380 g and 0.396 g and 0.310 g
- Liver weight [1, 3]: 1.105 g and 1.190 g and 1.208 g and 1.348 g and 0.958 g
- Spleen weight [1, 3]: 0.077 g and 0.106 g and 0.094 g and 0.108 g and 0.078 g
- Total Body Weight [1, 3]: 22 g and 23 g and 24 g and 25 g and 21 g
- plasma level of BPD at the beginning of exposure to light ([2]; 1 hour post-injection, as in Example 1, 0.9 mg/kg): about 4 μg/ml
- Plasma Conc. ([2]; 0.83 mg/kg, 20 min post injection): 4680 ng/mL
- Plasma Conc. ([2]; 0.83 mg/kg, 2 h 5 min post injection (text: 2 hours), 125 min): 2440 ng/mL
- Plasma Conc. ([2]; 0.87 mg/kg, 15 min post injection): 6320 ng/mL
- Plasma Conc. ([2]; 0.87 mg/kg, 1 h 38 min post injection, 98 min): 1800 ng/mL
- Plasma Conc. ([2]; 0.87 mg/kg, 1 h 42 min post injection, 102 min): 3220 ng/mL
- Plasma Conc. ([2]; 0.91 mg/kg, 1 h 24 min post injection, 84 min): 2920 ng/mL
- Plasma Conc. ([2]; 0.91 mg/kg, 1 h 32 min post injection, 92 min): 2980 ng/mL
- Plasma Conc. ([2]; 0.95 mg/kg, 1 h 23 min post injection, 83 min): 3260 ng/mL
- HB (hemoglobin) (mouse blood; [4]): 122 g/L
- Hct (hematocrit) (mouse blood; [4]): 0.352
- MCV (mouse blood; [4]): 49.5 fL
- PLT (platelet count) (mouse blood; [4]): 328 10^6 /ml
- RBC (mouse blood; [4]): 7.11 10^9 /ml
- WBC (mouse blood; [4]): 4.0 10^6 /ml
- HB (hemoglobin) (mouse blood; [5]): 126 g/L
- Hct (hematocrit) (mouse blood; [5]): 0.382
- MCV (mouse blood; [5]): 49.2 fL
- PLT (platelet count) (mouse blood; [5]): 274 10^6 /ml
- RBC (mouse blood; [5]): 7.76 10^9 /ml
- WBC (mouse blood; mouse 2, light 54 then 108 J/cm^2, platelet aggregate may contribute): 14.7 10^6 /ml
- HB (hemoglobin) (mouse blood; [6]): 124 g/L
- Hct (hematocrit) (mouse blood; [6]): 0.365
- MCV (mouse blood; [6]): 48.9 fL
- PLT (platelet count) (mouse blood; [6]): 119 10^6 /ml
- RBC (mouse blood; [6]): 7.46 10^9 /ml
- WBC (mouse blood; [6]): 8.2 10^6 /ml
- HB (hemoglobin) (mouse blood; [7]): 123 g/L
- Hct (hematocrit) (mouse blood; [7]): 0.364
- MCV (mouse blood; [7]): 47.6 fL
- PLT (platelet count) (mouse blood; [7]): 438 10^6 /ml
- RBC (mouse blood; [7]): 7.65 10^9 /ml
- WBC (mouse blood; [7]): 7.6 10^6 /ml
- HB (hemoglobin) (mouse blood; [8]): 108 g/L
- Hct (hematocrit) (mouse blood; [8]): 0.316
- MCV (mouse blood; [8]): 48.8 fL
- PLT (platelet count) (mouse blood; [8]): 134 10^6 /ml
- RBC (mouse blood; [8]): 6.47 10^9 /ml
- WBC (mouse blood; [8]): 2.9 10^6 /ml
- all blood values (Tables 3 and 4) (mouse blood; two weeks post-treatment): within normal ranges
- effect on virus-infected T cell membrane (virus-infected T cells): holes developed in the T cell membrane, which increased in size until the membrane completely decomposed
